Values of other authors in US20230241194A1, “PRE-ERYTHROCYTIC MALARIA VACCINES” (PATH, priority 2020, published 2023).

Target: T1, TLR7 (Homo sapiens, UniProt Q9NYK1)
T1 sequence (Q9NYK1 27-1049): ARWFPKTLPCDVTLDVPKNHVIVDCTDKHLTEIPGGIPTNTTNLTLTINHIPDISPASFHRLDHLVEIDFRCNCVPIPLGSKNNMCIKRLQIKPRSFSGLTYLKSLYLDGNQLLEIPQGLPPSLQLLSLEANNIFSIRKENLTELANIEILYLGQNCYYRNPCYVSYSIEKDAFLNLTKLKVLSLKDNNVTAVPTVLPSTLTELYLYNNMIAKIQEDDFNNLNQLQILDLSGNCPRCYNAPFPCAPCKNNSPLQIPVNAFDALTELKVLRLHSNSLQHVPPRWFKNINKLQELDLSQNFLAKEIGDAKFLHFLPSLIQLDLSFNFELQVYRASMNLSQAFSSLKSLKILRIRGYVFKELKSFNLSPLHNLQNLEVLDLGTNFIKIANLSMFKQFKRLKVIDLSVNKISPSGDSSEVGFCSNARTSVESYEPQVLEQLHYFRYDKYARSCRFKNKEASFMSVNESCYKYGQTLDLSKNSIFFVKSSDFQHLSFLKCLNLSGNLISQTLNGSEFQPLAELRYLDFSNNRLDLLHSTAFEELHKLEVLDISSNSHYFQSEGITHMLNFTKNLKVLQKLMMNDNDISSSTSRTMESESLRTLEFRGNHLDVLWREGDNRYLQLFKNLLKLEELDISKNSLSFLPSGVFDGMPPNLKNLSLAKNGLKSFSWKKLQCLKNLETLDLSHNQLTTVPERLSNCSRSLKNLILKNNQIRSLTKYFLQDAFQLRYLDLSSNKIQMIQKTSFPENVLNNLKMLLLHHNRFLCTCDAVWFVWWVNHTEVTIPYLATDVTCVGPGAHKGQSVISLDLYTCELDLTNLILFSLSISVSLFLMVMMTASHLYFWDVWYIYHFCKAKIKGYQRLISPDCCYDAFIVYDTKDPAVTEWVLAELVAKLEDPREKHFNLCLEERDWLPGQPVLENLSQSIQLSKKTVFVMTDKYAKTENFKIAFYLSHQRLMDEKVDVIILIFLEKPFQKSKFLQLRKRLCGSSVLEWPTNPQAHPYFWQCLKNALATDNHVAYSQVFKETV
Conditions: reported in PTL 1

- TLR7 agonistic activity: having TLR7 agonistic activity
Structure (SMILES): CCC[C@@H](CCO)Nc1nc(N)nc(C)c1Cc1ccc(CN(C)CCNC(=O)CC/C(C)=C/CC/C(C)=C/CC/C(C)=C/CC/C=C(\C)CC/C=C(\C)CCC=C(C)C)cc1 [Compound A, (4E,8E,12E,16E,20E)-N-{2-[{4-[(2-amino-4-{[(3S)-1-hydroxyhexan-3-yl]amino}-6-methylpyrimidin-5-yl)methyl]benzyl}(methyl)amino]ethyl}-4,8,12,17,21,25-hexamethylhexacosa-4,8,12,16,20,24-hexaenamide]
